Results from patent publication US10670605B2, “Cysteine reactive probes and uses thereof” (The Scripps Research Institute, priority 2015, dated 2020).

Assays:
Test in all cases: Competitive isoTOP-ABPP in situ (fragment-treated cells)
Assay type in all cases: cell-based
[1] = target: T1, cysteines in MDA-MB-231 and Ramos cells (Homo sapiens, UniProt P21980)
T1 sequence (P21980 1-687): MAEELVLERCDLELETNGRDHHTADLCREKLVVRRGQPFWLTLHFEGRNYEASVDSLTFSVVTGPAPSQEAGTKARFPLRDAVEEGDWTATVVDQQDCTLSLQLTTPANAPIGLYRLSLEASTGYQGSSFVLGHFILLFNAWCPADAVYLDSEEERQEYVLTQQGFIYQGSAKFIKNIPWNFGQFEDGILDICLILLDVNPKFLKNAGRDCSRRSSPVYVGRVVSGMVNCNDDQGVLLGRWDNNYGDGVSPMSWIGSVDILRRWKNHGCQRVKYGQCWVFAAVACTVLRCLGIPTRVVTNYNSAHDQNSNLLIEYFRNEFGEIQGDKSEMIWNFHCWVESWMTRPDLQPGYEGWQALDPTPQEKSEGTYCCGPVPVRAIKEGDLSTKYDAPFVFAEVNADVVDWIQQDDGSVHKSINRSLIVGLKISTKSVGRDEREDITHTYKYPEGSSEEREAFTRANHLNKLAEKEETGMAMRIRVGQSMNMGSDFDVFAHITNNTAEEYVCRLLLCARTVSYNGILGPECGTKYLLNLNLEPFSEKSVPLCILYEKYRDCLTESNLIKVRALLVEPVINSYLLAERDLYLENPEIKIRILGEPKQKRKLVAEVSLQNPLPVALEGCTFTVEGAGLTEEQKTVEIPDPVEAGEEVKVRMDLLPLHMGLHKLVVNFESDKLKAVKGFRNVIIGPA

[2] = target: T2, cysteines in MDA-MB-231 and Ramos cells (Homo sapiens, UniProt Q13162)
T2 sequence (Q13162 38-271): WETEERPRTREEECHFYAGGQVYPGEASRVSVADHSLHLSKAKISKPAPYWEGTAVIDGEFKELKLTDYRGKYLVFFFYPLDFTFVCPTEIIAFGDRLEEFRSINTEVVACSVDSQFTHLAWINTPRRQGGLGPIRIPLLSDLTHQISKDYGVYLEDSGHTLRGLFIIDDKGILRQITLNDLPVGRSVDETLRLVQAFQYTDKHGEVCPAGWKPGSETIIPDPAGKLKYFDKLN

[3] = target: T3, cysteines in MDA-MB-231 and Ramos cells (Homo sapiens, UniProt Q9NQC3)
T3 sequence (Q9NQC3 1-1192): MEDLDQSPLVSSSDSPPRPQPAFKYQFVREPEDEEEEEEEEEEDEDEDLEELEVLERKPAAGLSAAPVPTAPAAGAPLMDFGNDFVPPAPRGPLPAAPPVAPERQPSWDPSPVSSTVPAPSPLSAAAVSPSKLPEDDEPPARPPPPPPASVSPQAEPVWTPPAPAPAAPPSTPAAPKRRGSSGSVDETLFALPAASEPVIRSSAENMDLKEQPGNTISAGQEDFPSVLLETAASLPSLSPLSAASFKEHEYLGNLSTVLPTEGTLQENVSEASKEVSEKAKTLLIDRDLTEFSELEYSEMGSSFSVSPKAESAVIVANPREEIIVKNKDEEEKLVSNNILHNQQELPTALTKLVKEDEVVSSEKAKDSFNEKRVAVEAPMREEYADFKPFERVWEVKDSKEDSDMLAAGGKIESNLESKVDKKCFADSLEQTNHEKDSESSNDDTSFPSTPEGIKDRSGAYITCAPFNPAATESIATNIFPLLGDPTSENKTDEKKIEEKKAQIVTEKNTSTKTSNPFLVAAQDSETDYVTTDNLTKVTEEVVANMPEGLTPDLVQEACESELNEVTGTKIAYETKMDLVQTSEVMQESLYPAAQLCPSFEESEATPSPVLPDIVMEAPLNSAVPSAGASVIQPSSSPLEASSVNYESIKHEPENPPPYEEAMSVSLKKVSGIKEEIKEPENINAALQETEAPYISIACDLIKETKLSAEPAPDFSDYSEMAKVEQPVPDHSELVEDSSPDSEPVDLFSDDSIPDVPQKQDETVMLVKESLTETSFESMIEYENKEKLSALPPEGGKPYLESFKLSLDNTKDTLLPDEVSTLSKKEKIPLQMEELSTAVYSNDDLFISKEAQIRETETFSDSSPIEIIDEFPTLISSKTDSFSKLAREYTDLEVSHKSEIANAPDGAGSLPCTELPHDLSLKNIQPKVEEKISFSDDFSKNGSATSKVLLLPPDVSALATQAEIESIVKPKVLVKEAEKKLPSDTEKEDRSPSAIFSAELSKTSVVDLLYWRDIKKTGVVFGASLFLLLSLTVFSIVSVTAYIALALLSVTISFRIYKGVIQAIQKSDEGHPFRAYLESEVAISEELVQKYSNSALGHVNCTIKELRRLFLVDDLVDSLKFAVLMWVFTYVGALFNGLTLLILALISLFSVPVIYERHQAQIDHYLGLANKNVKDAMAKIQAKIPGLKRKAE

[4] = target: T4, cysteines in MDA-MB-231 and Ramos cells (Homo sapiens, UniProt Q9NVC6)
T4 sequence (Q9NVC6 1-651): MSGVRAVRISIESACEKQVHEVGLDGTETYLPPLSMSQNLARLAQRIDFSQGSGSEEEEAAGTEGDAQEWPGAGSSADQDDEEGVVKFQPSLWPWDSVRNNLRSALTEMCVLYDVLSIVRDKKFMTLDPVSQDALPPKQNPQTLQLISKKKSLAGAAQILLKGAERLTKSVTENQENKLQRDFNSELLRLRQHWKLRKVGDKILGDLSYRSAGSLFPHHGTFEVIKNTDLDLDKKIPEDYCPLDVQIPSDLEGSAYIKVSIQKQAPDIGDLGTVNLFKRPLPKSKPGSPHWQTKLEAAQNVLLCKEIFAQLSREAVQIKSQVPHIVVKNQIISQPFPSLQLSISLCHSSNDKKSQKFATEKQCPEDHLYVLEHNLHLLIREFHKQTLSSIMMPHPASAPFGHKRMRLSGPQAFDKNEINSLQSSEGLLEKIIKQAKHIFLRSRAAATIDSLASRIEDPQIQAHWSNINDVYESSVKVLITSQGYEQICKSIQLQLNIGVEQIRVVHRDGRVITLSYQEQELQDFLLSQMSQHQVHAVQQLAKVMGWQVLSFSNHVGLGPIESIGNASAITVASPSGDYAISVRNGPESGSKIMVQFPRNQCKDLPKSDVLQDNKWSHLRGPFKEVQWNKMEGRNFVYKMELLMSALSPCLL

| SMILES | isoTOP-ABPP ratio P21980_C277 ([1]; 200 μM, insitu, 231) | isoTOP-ABPP ratio Q13162_C51 ([2]; 200 μM, insitu, 231) | isoTOP-ABPP ratio Q9NQC3_C1101 ([3]; 200 μM, insitu, 231) | isoTOP-ABPP ratio Q9NVC6_C649 ([4]; 200 μM, insitu, 231) | other results |
| --- | --- | --- | --- | --- | --- |
| COc1ccc2c(c1)CCCN2C(=O)CCl [compound 2] |  |  |  |  | isoTOP-ABPP reactivity P21980_C277 TGM2 ([1]; 200 μM, insitu, 231): 0.7; isoTOP-ABPP reactivity Q13162_C51 PRDX4 ([2]; 200 μM, insitu, 231): 4.6; isoTOP-ABPP reactivity Q9NQC3_C1101 RTN4 ([3]; 200 μM, insitu, 231): 12.0; isoTOP-ABPP reactivity Q9NVC6_C649 MED17 ([4]; 200 μM, insitu, 231): 7.7 |
| COc1ccc(C2CC(c3cccs3)=NN2C(=O)CCl)cc1 (stereo not drawn) [compound 4] |  |  |  |  | isoTOP-ABPP reactivity P21980_C277 TGM2 ([1]; 100 μM in situ 231): 0.5; isoTOP-ABPP reactivity Q13162_C51 PRDX4 ([2]; 100 μM in situ 231): 1.2; isoTOP-ABPP reactivity Q9NQC3_C1101 RTN4 ([3]; 100 μM in situ 231): 20.0; isoTOP-ABPP reactivity Q9NVC6_C649 MED17 ([4]; 100 μM in situ 231): 1.7 |
| COc1cc2c(cc1OC)CN(C(=O)CCl)CC2 [compound 8] |  |  |  |  | isoTOP-ABPP reactivity P21980_C277 TGM2 ([1]; 200 μM, insitu, 231): 0.7; isoTOP-ABPP reactivity Q13162_C51 PRDX4 ([2]; 200 μM, insitu, 231): 1.4; isoTOP-ABPP reactivity Q9NVC6_C649 MED17 ([4]; 200 μM, insitu, 231): 3.2 |
| O=C(CCl)N1CCC(Cc2ccccc2)CC1 [compound 9] |  |  |  |  | isoTOP-ABPP reactivity P21980_C277 TGM2 ([1]; 200 μM, insitu, 231): 2.3; isoTOP-ABPP reactivity Q13162_C51 PRDX4 ([2]; 200 μM, insitu, 231): 3.3; isoTOP-ABPP reactivity Q9NQC3_C1101 RTN4 ([3]; 200 μM, insitu, 231): 20.0; isoTOP-ABPP reactivity Q9NVC6_C649 MED17 ([4]; 200 μM, insitu, 231): 2.2 |
| Cn1cc(S(=O)(=O)N2CCOCC2)cc1C(=O)NC(=O)CCl [compound 11] |  |  |  |  | isoTOP-ABPP ratio P21980_C277 ([1]; 100 μM in situ 231): 0.6; isoTOP-ABPP ratio Q13162_C51 ([2]; 100 μM in situ 231): 0.9; isoTOP-ABPP ratio Q9NQC3_C1101 ([3]; 100 μM in situ 231): 1.1; isoTOP-ABPP ratio Q9NVC6_C649 ([4]; 100 μM in situ 231): 0.8 |
| O=C(CCl)NC(=O)NC12CC3CC(CC(C3)C1)C2 [compound 12] | 0.3 | 1.0 | 20.0 | 4.0 |  |
| O=C(CCl)NC12CC3CC(CC(C3)C1)C2 [compound 21] | 0.7 | 1.7 | 2.1 | 0.8 |  |
| CC(C)CCOCCNC(=O)CCl [compound 27] | 0.6 | 0.9 | 1.4 | 1.3 |  |
| O=C(CCl)N1CCN(CC(=O)N2CCOCC2)CC1 [compound 29] |  |  |  |  | isoTOP-ABPP ratio Q9NVC6_C649 ([4]; 200 μM, insitu, ramos): 1.6 |
| C=CC(=O)N(Cc1cccnc1)c1cc(C(F)(F)F)cc(C(F)(F)F)c1 [compound 31] |  |  | 12.8 | 0.8 | isoTOP-ABPP ratio Q13162_C51 ([2]; 200 μM, insitu, ramos): 1.3 |
| C=CC(=O)Nc1cc(F)c(N2CCN(C(=O)OC(C)(C)C)CC2)c(F)c1 [compound 38] | 1.4 | 2.4 | 20.0 | 1.2 |  |
| Cc1ccc(C=C(C#N)C(=O)NCCN2CCOCC2)cc1 [compound 41] | 0.6 |  | 1.0 | 0.8 |  |
| O=C(CCl)Nc1cccc2ncccc12 [compound 51] | 1.0 |  | 1.2 |  |  |

Further lines, with some results ahead:

| isoTOP-ABPP ratio P21980_C277 ([1]; 200 μM, insitu, 231) | isoTOP-ABPP ratio Q13162_C51 ([2]; 200 μM, insitu, 231) | isoTOP-ABPP ratio Q9NQC3_C1101 ([3]; 200 μM, insitu, 231) | isoTOP-ABPP ratio Q9NVC6_C649 ([4]; 200 μM, insitu, 231) | SMILES | other results |
| --- | --- | --- | --- | --- | --- |
| 0.6 | 2.0 | 20.0 | 2.3 | O=C(CCl)N1CCN(S(=O)(=O)c2ccccc2F)CC1 [compound 10] | isoTOP-ABPP ratio Q9NVC6_C649 ([4]; 200 μM, insitu, ramos): 2.1 |
| 0.8 |  |  | 1.1 | O=C(CCl)NCCc1c[nH]c2ccccc12 [compound 13] | isoTOP-ABPP ratio Q9NVC6_C649 ([4]; 200 μM, insitu, ramos): 1.0 |
| 0.4 |  |  | 1.1 | COc1ccccc1OCCNC(=O)CCl [compound 28] |  |
| 1.1 | 2.3 |  | 20.0 | CC1CCc2ccccc2N1C(=O)CCl (stereo not drawn) [compound 45] |  |
